Test results: patent publication US20050220899A1, “Use of cisplatin in combination with folic acid for increasing cisplatin efficacy” (priority 2002, published 2005)

System: mesothelioma
Test: Treatment of human mesothelioma patients with cisplatin with or without folic acid
Assay type: in vivo
Settings: human patients exhibiting mesothelioma; 75-120 mg/m^2 of cisplatin

N.N.[Cl][Pt][Cl] [cisplatin, cis-diamminedichloroplatinum]
median survival time: 7.2 months
response rate: 8.5%
